Experimental data from ChEMBL document CHEMBL3779887, “Robenidine Analogues as Gram-Positive Antibacterial Agents” (J Med Chem, 2016).
Converted amounts (≈) assume the structure as drawn.

How the values were obtained:
Assay type in all cases: functional
Enterococcus = assay: Antibacterial activity against vancomycin-resistant Enterococcus after 20 to 24 hrs
Staphylococcus aureus [1] = assay: Antibacterial activity against methicillin-resistant Staphylococcus aureus after 20 to 24 hrs
Escherichia coli [2] = assay: Antibacterial activity against Escherichia coli ATCC 25922 after 20 to 24 hrs
Pseudomonas aeruginosa [3] = assay: Antibacterial activity against Pseudomonas aeruginosa ATCC 27853 after 20 to 24 hrs
Escherichia coli [4] = assay: Antibacterial activity against Escherichia coli ATCC 25922 after 20 to 24 hrs in presence of polymyxin B nonapeptide
Pseudomonas aeruginosa [5] = assay: Antibacterial activity against Pseudomonas aeruginosa ATCC 27853 after 20 to 24 hrs in presence of polymyxin B nonapeptide
Staphylococcus aureus [6] = assay: Bactericidal activity against methicillin-sensitive Staphylococcus aureus ATCC 29213 after 24 and 48 hrs
Staphylococcus aureus [7] = assay: Antibacterial activity against methicillin-resistant Staphylococcus aureus clinical isolate after 20 to 24 hrs
Staphylococcus aureus [8] = assay: Bactericidal activity against methicillin-sensitive Staphylococcus aureus ATCC 6538 after 24 and 48 hrs
Staphylococcus aureus [9] = assay: Bactericidal activity against methicillin-sensitive Staphylococcus aureus ATCC 25923 after 24 and 48 hrs
Staphylococcus aureus [10] = assay: Antibacterial activity against methicillin-sensitive Staphylococcus aureus ATCC 49775 after 20 to 24 hrs
Staphylococcus aureus [11] = assay: Bactericidal activity against methicillin-resistant Staphylococcus aureus clinical isolate after 24 and 48 hrs
Staphylococcus aureus [12] = assay: Antibacterial activity against methicillin-sensitive Staphylococcus aureus ATCC 6538 after 20 to 24 hrs
Staphylococcus aureus [13] = assay: Antibacterial activity against methicillin-sensitive Staphylococcus aureus ATCC 29213 after 20 to 24 hrs
Staphylococcus aureus [14] = assay: Antibacterial activity against methicillin-sensitive Staphylococcus aureus ATCC 25923 after 20 to 24 hrs
Staphylococcus aureus [15] = assay: Bactericidal activity against methicillin-sensitive Staphylococcus aureus ATCC 49775 after 24 and 48 hrs

| SMILES | MIC (Enterococcus) [µM] | MIC (Staphylococcus aureus [1]) [µM] | MIC (Escherichia coli [2]) [µM] | MIC (Pseudomonas aeruginosa [3]) [µM] | further results |
| --- | --- | --- | --- | --- | --- |
| N=C(N/N=C/c1cc(O)c(O)cc1O)N/N=C/c1cc(O)c(O)cc1O | 322 (≈ 116 µg/mL) | 161 (≈ 58.2 µg/mL) | > 400 | > 400 | – |
| N=C(N/N=C/c1ccc(Cl)cc1Cl)N/N=C/c1ccc(Cl)cc1Cl | > 400 | > 400 | > 400 | > 400 | – |
| N=C(N/N=C/c1ccc(O)c(O)c1O)N/N=C/c1ccc(O)c(O)c1O | 161 (≈ 58.2 µg/mL) | 161 (≈ 58.2 µg/mL) | > 400 | > 400 | – |
| CC(C)/N=c1\cc2n(-c3ccc(Cl)cc3)c3ccccc3nc-2cc1Nc1ccc(Cl)cc1 [CLOFAZIMINE] | – | – | – | – | MIC90 (Escherichia coli [4]): 4.2 µM; MIC90 (Pseudomonas aeruginosa [5]): 8.4 µM; MIC90 (Escherichia coli [2]): > 250 µM; MIC90 (Pseudomonas aeruginosa [3]): > 250 µM |
| N=C(N/N=C/c1ccc(Cl)cc1O)N/N=C/c1ccc(Cl)cc1O | 45 (≈ 16.5 µg/mL) | 80 (≈ 29.3 µg/mL) | > 400 | > 400 | – |
| N=C(N/N=C/c1ccc(O)cc1O)N/N=C/c1ccc(O)cc1O | > 400 | > 400 | > 400 | > 400 | – |
| N=C(N/N=C/c1ccc(OC(F)(F)F)cc1)N/N=C/c1ccc(OC(F)(F)F)cc1 | 85 (≈ 36.8 µg/mL) | 187 (≈ 81 µg/mL) | > 400 | > 400 | – |
| N=C(N/N=C/c1ccc(Cl)cc1F)N/N=C/c1ccc(Cl)cc1F | 7.4 (≈ 2.74 µg/mL) | 6.1 (≈ 2.26 µg/mL) | > 400 | > 400 | – |
| COc1cc(/C=N/NC(=N)N/N=C/c2cc(Br)c(OC)c(OC)c2)cc(Br)c1OC | > 400 | > 400 | > 400 | > 400 | – |
| N=C(N/N=C/c1cccc(F)c1)N/N=C/c1cccc(F)c1 | 71 (≈ 21.4 µg/mL) | 47 (≈ 14.2 µg/mL) | > 400 | > 400 | – |
| N=C(N/N=C/c1cc(Cl)cc(Cl)c1)N/N=C/c1cc(Cl)cc(Cl)c1 | > 400 | > 400 | > 400 | > 400 | – |
| N=C(N/N=C/c1ccccc1Br)N/N=C/c1ccccc1Br | > 400 | > 400 | > 400 | > 400 | – |
| N=C(N/N=C/c1cccc(C(=O)O)c1)N/N=C/c1cccc(C(=O)O)c1 | > 400 | > 400 | > 400 | > 400 | – |
| COc1cc(/C=N/NC(=N)N/N=C/c2cc(O)c(O)c(OC)c2)cc(O)c1O | > 400 | > 400 | > 400 | > 400 | – |
| CC(=O)Nc1ccc(/C=N/NC(=N)N/N=C/c2ccc(NC(C)=O)cc2)cc1 | > 400 | > 400 | > 400 | > 400 | – |
| N=C(N/N=C/c1ccc(-c2ccccc2)cc1)N/N=C/c1ccc(-c2ccccc2)cc1 | 106 (≈ 44.3 µg/mL) | 282 (≈ 118 µg/mL) | > 400 | > 400 | – |
| Cc1ccccc1/C=N/NC(=N)N/N=C/c1ccccc1C | 61 (≈ 17.9 µg/mL) | 121 (≈ 35.5 µg/mL) | > 400 | > 400 | – |
| N=C(N/N=C/c1ccc(Cl)cc1N)N/N=C/c1ccc(Cl)cc1N | 6.3 (≈ 2.29 µg/mL) | 5 (≈ 1.82 µg/mL) | > 400 | > 400 | – |
| CCCCc1ccc(/C=N/NC(=N)N/N=C/c2ccc(CCCC)cc2)cc1 | 193 (≈ 72.9 µg/mL) | 232 (≈ 87.6 µg/mL) | > 400 | > 400 | – |
| N=C(N/N=C/c1ccc(SC(F)(F)F)cc1)N/N=C/c1ccc(SC(F)(F)F)cc1 | 135 (≈ 62.8 µg/mL) | 96 (≈ 44.7 µg/mL) | > 400 | > 400 | – |
| N=C(N/N=C/c1ccccc1-c1ccccc1)N/N=C/c1ccccc1-c1ccccc1 | > 400 | > 400 | > 400 | > 400 | – |
| N=C(N/N=C/c1ccccc1F)N/N=C/c1ccccc1F | > 400 | > 400 | > 400 | > 400 | – |
| N=C(N/N=C/c1ccc(F)cc1)N/N=C/c1ccc(F)cc1 | 23.7 (≈ 7.14 µg/mL) | 47 (≈ 14.2 µg/mL) | > 400 | > 400 | – |
| COc1ccccc1/C=N/NC(=N)N/N=C/c1ccccc1OC | 358 (≈ 116 µg/mL) | > 400 | > 400 | > 400 | – |
| CC1(C)S[C@@H]2[C@H](NC(=O)[C@H](N)c3ccccc3)C(=O)N2[C@H]1C(=O)O [AMPICILLIN] | 11.5 (≈ 4.02 µg/mL) | 183 (≈ 63.9 µg/mL) | 45.8 (≈ 16 µg/mL) | 366 (≈ 128 µg/mL) | MBC (Staphylococcus aureus [6]): 2 µM (≈ 0.699 µg/mL); MIC90 (Staphylococcus aureus [7]): 0.3 µM (≈ 0.105 µg/mL); MBC (Staphylococcus aureus [8]): 2 µM (≈ 0.699 µg/mL); MBC (Staphylococcus aureus [9]): 2 µM (≈ 0.699 µg/mL); MIC90 (Staphylococcus aureus [10]): 0.3 µM (≈ 0.105 µg/mL); MBC (Staphylococcus aureus [11]): 2 µM (≈ 0.699 µg/mL); MIC90 (Staphylococcus aureus [12]): 0.3 µM (≈ 0.105 µg/mL); MIC90 (Staphylococcus aureus [13]): 0.3 µM (≈ 0.105 µg/mL); MIC90 (Staphylococcus aureus [14]): 0.3 µM (≈ 0.105 µg/mL); MBC (Staphylococcus aureus [15]): 2 µM (≈ 0.699 µg/mL) |
| N=C(N/N=C/c1ccccc1)N/N=C/c1ccccc1 | > 400 | > 400 | > 400 | > 400 | – |
| N=C(N/N=C/c1cc(F)ccc1F)N/N=C/c1cc(F)ccc1F | > 400 | > 400 | > 400 | > 400 | – |

| SMILES | MIC (Enterococcus) [µM] | MIC (Staphylococcus aureus [1]) [µM] | MIC (Escherichia coli [2]) [µM] | MIC (Pseudomonas aeruginosa [3]) [µM] | further results |
| --- | --- | --- | --- | --- | --- |
| N=C(N/N=C/c1ccc(F)c(F)c1)N/N=C/c1ccc(F)c(F)c1 | 10.7 (≈ 3.61 µg/mL) | 40.1 (≈ 13.5 µg/mL) | > 400 | > 400 | – |
| Cc1ccc(/C=N/NC(=N)N/N=C/c2ccc(C)cc2)cc1 | 12.1 (≈ 3.55 µg/mL) | 9.1 (≈ 2.67 µg/mL) | > 400 | > 400 | – |
| N=C(N/N=C/c1ccc(/C=C/C(=O)O)cc1)N/N=C/c1ccc(/C=C/C(=O)O)cc1 | > 400 | > 400 | > 400 | > 400 | – |
| COc1ccc(/C=N/NC(=N)N/N=C/c2ccc(OC)cc2)cc1 | > 400 | > 400 | > 400 | > 400 | – |
| N=C(N/N=C/c1c(F)c(F)c(F)c(F)c1F)N/N=C/c1c(F)c(F)c(F)c(F)c1F | > 400 | > 400 | > 400 | > 400 | – |
| CCCc1ccc(/C=N/NC(=N)N/N=C/c2ccc(CCC)cc2)cc1 | 73 (≈ 25.5 µg/mL) | 83 (≈ 29 µg/mL) | > 400 | > 400 | – |
| CC(=O)Nc1cc(Cl)ccc1/C=N/NC(=N)N/N=C/c1ccc(Cl)cc1NC(C)=O | > 400 | > 400 | > 400 | > 400 | – |
| N=C(N/N=C/c1cccc(Cl)c1)N/N=C/c1cccc(Cl)c1 | 10.8 (≈ 3.61 µg/mL) | 8.1 (≈ 2.71 µg/mL) | > 400 | > 400 | – |
| N=C(N/N=C/c1ccccc1O)N/N=C/c1ccccc1O | 240 (≈ 71.4 µg/mL) | 36 (≈ 10.7 µg/mL) | > 400 | > 400 | – |
| Cc1cccc(/C=N/NC(=N)N/N=C/c2cccc(C)c2O)c1O | > 400 | > 400 | > 400 | > 400 | – |
| CN(C)c1ccc(/C=N/NC(=N)N/N=C/c2ccc(N(C)C)cc2O)c(O)c1 | 76 (≈ 29.1 µg/mL) | 229 (≈ 87.8 µg/mL) | > 400 | > 400 | – |
| N=C(N/N=C/c1cccc(O)c1O)N/N=C/c1cccc(O)c1O | 262 (≈ 86.3 µg/mL) | 88 (≈ 29 µg/mL) | > 400 | > 400 | – |
| Cc1cccc(/C=N/NC(=N)N/N=C/c2cccc(C)c2)c1 | 24.4 (≈ 7.16 µg/mL) | 24.4 (≈ 7.16 µg/mL) | > 400 | > 400 | – |
| COc1ccc(/C=N/NC(=N)N/N=C/c2ccc(OC)c(OC)c2)cc1OC | > 400 | > 400 | > 400 | > 400 | – |
| N=C(N/N=C/c1cc(O)c(O)c(O)c1)N/N=C/c1cc(O)c(O)c(O)c1 | > 400 | 161 (≈ 58.2 µg/mL) | > 400 | 322 (≈ 116 µg/mL) | – |
| N=C(N/N=C/c1ccc(O)cc1)N/N=C/c1ccc(O)cc1 | 288 (≈ 85.6 µg/mL) | 192 (≈ 57.1 µg/mL) | > 400 | > 400 | – |
| N=C(N/N=C/c1ccccc1Cl)N/N=C/c1ccccc1Cl | > 400 | > 400 | > 400 | > 400 | – |
| CN(C)c1ccc(/C=N/NC(=N)N/N=C/c2ccc(N(C)C)cc2)cc1 | 30.9 (≈ 10.9 µg/mL) | 30.9 (≈ 10.9 µg/mL) | > 400 | > 400 | – |
| COc1cc(/C=N/NC(=N)N/N=C/c2ccc(O)c(OC)c2)ccc1O | 163 (≈ 58.3 µg/mL) | 244 (≈ 87.2 µg/mL) | > 400 | > 400 | – |
| N=C(N/N=C/c1cccc(O)c1)N/N=C/c1cccc(O)c1 | 288 (≈ 85.6 µg/mL) | 192 (≈ 57.1 µg/mL) | > 400 | > 400 | – |
| N=C(N/N=C/c1ccc(O)c([N+](=O)[O-])c1)N/N=C/c1ccc(O)c([N+](=O)[O-])c1 | > 400 | > 400 | > 400 | > 400 | – |
| N=C(N/N=C/c1ccc(Br)cc1)N/N=C/c1ccc(Br)cc1 | > 400 | > 400 | > 400 | > 400 | – |
| N=C(N/N=C/c1ccc(O)c(O)c1)N/N=C/c1ccc(O)c(O)c1 | > 400 | > 400 | > 400 | > 400 | – |
| CC(O)Nc1cc(Cl)ccc1/C=N/NC(=N)N/N=C/c1ccc(Cl)cc1NC(C)O (configuration not stated) | 98 (≈ 44.3 µg/mL) | 66 (≈ 29.9 µg/mL) | > 400 | > 400 | – |
| N=C(N/N=C/c1ccc(C(F)(F)F)cc1)N/N=C/c1ccc(C(F)(F)F)cc1 | 11.4 (≈ 4.57 µg/mL) | 36.5 (≈ 14.6 µg/mL) | > 400 | > 400 | – |
| COc1ccc(/C=N/NC(=N)N/N=C/c2ccc(OC)c(O)c2)cc1O | > 400 | > 400 | > 400 | > 400 | – |
